Assay results published in the supplement of paper PMC11208160.

Assay: recombinant barcode read abundance after kanamycin selection (control-corrected) (log10(CPM+1)); higher = more efficient recombination; sequences stand for … in AGTGCAGAGAAAATCGGCCAGTTTTCTCTGCCTGCAGTCCGCATGCCGT…AGATTTATGCAGCGGACTGCCTTTCTCCCAAAGTGATAAACCGGACAGTATCATGGACCGGTTTTCCCGGTAATCCGTATTTGCAAGGTTGGTTTCACT; site = the 11-nt target
How it was run: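 Recombination efficiency draws on barcodes counted at recombinant junctions in a pooled E. coli screen of targets paired with IS621 bridge RNA target-binding loops. The counts were converted to counts per million, averaged and corrected against the chloramphenicol/ampicillin LB agar control, then reported as log10(CPM+1). Selection plates held chloramphenicol/ampicillin/kanamycin with 0.1 mM IPTG, with two replicates per condition.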
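Note: IS621 recombinase and bridge RNA in Escherichia coli cells.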

With “CATAGCGCTTGGGTTCTAACCTGTTGCCT (site AGCTTGCCTCT)” as the sequence, how does the “recombinant barcode read abundance (log10)” value read?
The value was 0.0679.

With “CATAGCGCTTGGGTTCTAACCTGTTGCCT (site CATAGCGCTAG)” as the sequence, how does the “recombinant barcode read abundance (log10)” value read?
Its value is 0.605.

For “CATAGCTCTTGGGTTCTAACCTGTTGCCT (site AATAGCTCTAG)”, which “recombinant barcode read abundance (log10)” value is on record?
Its value is 0.527.

Which “recombinant barcode read abundance (log10)” value does the source give for “CATAGCTCTTGGGTTCTAACCTGTTGCCT (site CATAGCTCTAG)” here?
Its value is 1.24.

For “CATAGCTCTTGGGTTCTAACCTGTTGCCT (site GATAGCTCTAG)”, which “recombinant barcode read abundance (log10)” value is on record?
Its value is 0.176.

Which “recombinant barcode read abundance (log10)” value does the source give for “CATAGCTCTTGGGTTCTAACCTGTTGCCT (site TATAGCTCTAG)” here?
The value was 0.337.

Which “recombinant barcode read abundance (log10)” value does the source give for “CATAGGCCTTGGGTTCTAACCTGTTGCAT (site CATAGACCTAT)” here?
The value was 0.23.

Which “recombinant barcode read abundance (log10)” value does the source give for “CATAGGCCTTGGGTTCTAACCTGTTGCAT (site CATAGCCCTAT)” here?
The value was 0.371.

With “CATAGGCCTTGGGTTCTAACCTGTTGCAT (site CATAGGCCTAT)” as the sequence, how does the “recombinant barcode read abundance (log10)” value read?
The value was 0.811.

For “CATAGGCCTTGGGTTCTAACCTGTTGCAT (site CATAGTCCTAT)”, which “recombinant barcode read abundance (log10)” value is on record?
Its value is 0.105.

With “CATAGTCCTTGGGTTCTAACCTGTTGCAT (site CATAGACCTAT)” as the sequence, how does the “recombinant barcode read abundance (log10)” value read?
Its value is 0.213.

With “CATAGTCCTTGGGTTCTAACCTGTTGCAT (site CATAGCCCTAT)” as the sequence, how does the “recombinant barcode read abundance (log10)” value read?
Its value is 0.884.

With “CATAGTCCTTGGGTTCTAACCTGTTGCAT (site CATAGGCCTAT)” as the sequence, how does the “recombinant barcode read abundance (log10)” value read?
The value was 0.0509.

With “CATAGTCCTTGGGTTCTAACCTGTTGCAT (site CATAGTCCTAT)” as the sequence, how does the “recombinant barcode read abundance (log10)” value read?
The value was 0.923.

With “CATCCCTCTTGGGTTCTAACCTGTTGCTT (site CATCCCTCTAA)” as the sequence, how does the “recombinant barcode read abundance (log10)” value read?
Its value is 1.51.

For “CATCCCTCTTGGGTTCTAACCTGTTGCTT (site CATCCGTCTAA)”, which “recombinant barcode read abundance (log10)” value is on record?
The value was 0.0576.

For “CATCCGTCTTGGGTTCTAACCTGTTGCCT (site CATCCGACTAG)”, which “recombinant barcode read abundance (log10)” value is on record?
Its value is 0.105.

Which “recombinant barcode read abundance (log10)” value does the source give for “CATCCGTCTTGGGTTCTAACCTGTTGCCT (site CATCCGCCTAG)” here?
The value was 0.0457.

With “CATCCGTCTTGGGTTCTAACCTGTTGCCT (site CATCCGGCTAG)” as the sequence, how does the “recombinant barcode read abundance (log10)” value read?
Its value is 0.131.

For “CATCCGTCTTGGGTTCTAACCTGTTGCCT (site CATCCGTCTAG)”, which “recombinant barcode read abundance (log10)” value is on record?
Its value is 1.21.

With “CATCCTACTTGGGTTCTAACCTGTTGCCG (site CATCCTACTAT)” as the sequence, how does the “recombinant barcode read abundance (log10)” value read?
Its value is 0.0476.

For “CATCCTACTTGGGTTCTAACCTGTTGCCG (site CATCCTACTCG)”, which “recombinant barcode read abundance (log10)” value is on record?
Its value is 0.156.

Which “recombinant barcode read abundance (log10)” value does the source give for “CATCCTACTTGGGTTCTAACCTGTTGCCT (site CATCCTACTAG)” here?
Its value is 0.259.

Which “recombinant barcode read abundance (log10)” value does the source give for “CATCCTACTTGGGTTCTAACCTGTTGCCT (site TCCAACTCTGT)” here?
The value was 0.153.

With “CATCGGACTTGGGTTCTAACCTGTTGCTA (site CATCGGACTTA)” as the sequence, how does the “recombinant barcode read abundance (log10)” value read?
The value was 0.834.

Which “recombinant barcode read abundance (log10)” value does the source give for “CATCGGACTTGGGTTCTAACCTGTTGCTA (site CATTGTACTTA)” here?
The value was 0.347.

For “CATCGGGCTTGGGTTCTAACCTGTTGCAG (site CATCGGGCTCT)”, which “recombinant barcode read abundance (log10)” value is on record?
Its value is 1.43.

With “CATCGGGCTTGGGTTCTAACCTGTTGCAG (site CCTCGGGCTCT)” as the sequence, how does the “recombinant barcode read abundance (log10)” value read?
Its value is 0.0832.

For “CATCGGGCTTGGGTTCTAACCTGTTGCAG (site CGTCGGGCTCT)”, which “recombinant barcode read abundance (log10)” value is on record?
The value was 0.00527.

For “CATCGGGCTTGGGTTCTAACCTGTTGCAG (site CTTCGGGCTCT)”, which “recombinant barcode read abundance (log10)” value is on record?
Its value is 0.292.

For “CATGATGCTTGGGTTCTAACCTGTTGCCT (site CAAGATGCTAG)”, which “recombinant barcode read abundance (log10)” value is on record?
Its value is 0.256.

Which “recombinant barcode read abundance (log10)” value does the source give for “CATGATGCTTGGGTTCTAACCTGTTGCCT (site CACGATGCTAG)” here?
The value was 0.487.

With “CATGATGCTTGGGTTCTAACCTGTTGCCT (site CAGGATGCTAG)” as the sequence, how does the “recombinant barcode read abundance (log10)” value read?
Its value is 0.00956.

For “CATGATGCTTGGGTTCTAACCTGTTGCCT (site CATGATGCTAG)”, which “recombinant barcode read abundance (log10)” value is on record?
Its value is 1.86.

Which “recombinant barcode read abundance (log10)” value does the source give for “CATGCCGCTTGGGTTCTAACCTGTTGCCT (site CATGACACTAG)” here?
The value was 0.226.

For “CATGCCGCTTGGGTTCTAACCTGTTGCCT (site CATGCCGCTAG)”, which “recombinant barcode read abundance (log10)” value is on record?
The value was 1.73.
